Measurements reported in patent publication EP3212201B1, “NUCLEOSIDE KINASE INHIBITORS” (BCI Pharma, priority 2014, dated 2016).

Tests used:
Assay in all cases: FRET-based coupled-enzyme protein kinase inhibition assay
Type in all cases: biochemical
Conditions in all cases: compound at 10 µM, 1% DMSO
ABL1 = ABL1 (Homo sapiens, UniProt P00519)
Procedure: (§1) A biochemical assay was then performed in order to measure the protein kinase inhibition. It employed a fluorescence-based coupled-enzyme format and was based on the differential sensitivity of phosphorylated and non-phosphorylated peptides to proteolytic cleavage.
(§2) Peptide substrates were labeled with two fluorophores. The two fluorohores used were coumarin (donor) and fluorecein (acceptor), and each of the peptides was bearing one at one end, and one at the other end, which made up fluorescence resonance energy transfer (FRET) pair peptides.
(§3) In a primary reaction, the FRET-peptides were submitted to a phosphorylation reaction, in which one of adenosine triphosphate (ATP)'s phosphate groups was transferred to the peptide in the presence of kinase. When kinase inhibition takes place, the peptide will not be phosphorylated. In a secondary reaction, both the phosphorylated FRET-peptides and the non-phosphorylated FRET-peptides were reacted with a development reagent. It has been observed that non-phosphorylated FRET-peptides were cleaved, whereas the phosphorylted FRET-peptide remained intact.
(§4) Cleavage disrupts FRET between the donor (i.e., coumarin) and acceptor (i.e., fluorescein) fluorophores on the FRET-peptide, whereas uncleaved, phosphorylated FRET-peptides maintain FRET. A ratiometric method, which calculates the Emission Ratio of donor emission to acceptor emission after excitation of the donor fluorophore at 400 nm, is used to quantitate reaction progress, as shown in the equation below. [formula]
(§5) A significant benefit of this ratiometric method for quantitating reaction progress is the elimination of well-to-well variations in FRET-peptide concentration and signal intensities. As a result, the assay yields very high Z'factor values (>0.7) at a low percent phosphorylation. Both cleaved and uncleaved FRET-peptides contribute to the fluorescence signals and therefore to the Emission Ratio. The extent of phosphorylation of the FRET-peptide can be calculated from the Emission Ratio. The Emission Ratio will remain low if the FRET-peptide is phosphorylated (i.e., no kinase inhibition) and will be high if the FRET-peptide is non-phosphorylated (i.e., kinase inhibition).
(§6) The Test Compounds were screened in 1% DMSO. For 10 point titrations, 3-fold serial dilutions were prepared from the starting concentration.
(§7) All Peptide/Kinase Mixtures were diluted to a 2X working concentration in the appropriate Kinase Buffer (50 mM HEPES pH 7.5, 0.01% BRIJ-35, 10 mM MgCl2, 1 mM […]).
(§8) All ATP Solutions were diluted to a 4X working concentration in Kinase Buffer. ATP Km apparent was previously determined using another assay.
(§9) 2.5 µL - 4X Test Compound or 100 nL 100X plus 2.4 µL kinase buffer were mixed together with 2. 5 µL - 2X Peptide/Kinase Mixture and 3. 2.5 µL - 4X ATP Solution.
(§10) The solution was plate-shaked for 30 seconds, then incubated 60 minutes at room temperature for kinase reaction. 5 µL of Development Reagent Solution were then added, followed by a 30-second plate shake and a 60-minute Development Reaction incubation at room temperature. The results were read on a fluorescence plate reader and the data was analyzed.
(§11) The compounds that show the highest Emission Ratio are the ones that also show the highest protein kinase inhibition properties.

AMPK A1/B1/G1 = AMPK A1/B1/G1 (Homo sapiens, UniProt Q13131)
Procedure: as §1, §2, §3, §4, §5, §6, §7, §8, §9, §10, §11

CSNK2A1 (CK2 alpha 1) = CSNK2A1 (CK2 alpha 1) (Homo sapiens, UniProt P68400)
Procedure: as §1, §2, §3, §4, §5, §6, §7, §8, §9, §10, §11

EGFR (ErbB1) = EGFR (ErbB1) (Homo sapiens, UniProt P00533)
Procedure: as §1, §2, §3, §4, §5, §6, §7, §8, §9, §10, §11

FGFR1 = FGFR1 (Homo sapiens, UniProt P11362)
Procedure: as §1, §2, §3, §4, §5, §6, §7, §8, §9, §10, §11

KIT = KIT (Homo sapiens, UniProt P10721)
Sequence of KIT (P10721 26-976, species assumed): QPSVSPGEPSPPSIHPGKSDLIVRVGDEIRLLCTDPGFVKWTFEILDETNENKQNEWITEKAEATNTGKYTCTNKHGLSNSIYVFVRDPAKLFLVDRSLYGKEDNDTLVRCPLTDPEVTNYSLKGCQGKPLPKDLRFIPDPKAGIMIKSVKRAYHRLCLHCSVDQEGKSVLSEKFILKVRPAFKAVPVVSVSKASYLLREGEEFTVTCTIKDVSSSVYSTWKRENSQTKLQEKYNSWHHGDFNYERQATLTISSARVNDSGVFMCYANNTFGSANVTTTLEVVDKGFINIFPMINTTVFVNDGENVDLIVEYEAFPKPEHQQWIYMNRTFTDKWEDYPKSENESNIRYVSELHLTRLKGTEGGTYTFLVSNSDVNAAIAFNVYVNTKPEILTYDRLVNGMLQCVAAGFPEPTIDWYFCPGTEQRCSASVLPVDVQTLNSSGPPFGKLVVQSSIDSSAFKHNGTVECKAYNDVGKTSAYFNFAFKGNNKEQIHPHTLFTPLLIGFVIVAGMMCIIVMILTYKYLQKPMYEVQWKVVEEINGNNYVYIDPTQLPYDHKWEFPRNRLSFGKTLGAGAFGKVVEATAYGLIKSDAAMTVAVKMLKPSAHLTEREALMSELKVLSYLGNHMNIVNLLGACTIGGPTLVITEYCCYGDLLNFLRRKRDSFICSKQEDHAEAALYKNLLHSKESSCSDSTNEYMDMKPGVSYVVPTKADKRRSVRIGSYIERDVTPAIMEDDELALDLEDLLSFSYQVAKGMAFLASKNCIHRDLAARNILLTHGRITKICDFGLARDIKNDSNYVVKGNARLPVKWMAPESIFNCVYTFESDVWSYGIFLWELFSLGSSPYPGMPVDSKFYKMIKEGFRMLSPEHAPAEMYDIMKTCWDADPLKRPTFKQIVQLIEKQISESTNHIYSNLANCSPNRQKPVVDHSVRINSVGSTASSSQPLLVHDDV
Procedure: as §1, §2, §3, §4, §5, §6, §7, §8, §9, §10, §11

MAP2K1 (MEK1) = MAP2K1 (MEK1) (Homo sapiens, UniProt Q02750)
Procedure: as §1, §2, §3, §4, §5, §6, §7, §8, §9, §10, §11

MAP4K4 (HGK) = MAP4K4 (HGK) (Homo sapiens, UniProt O95819)
Sequence of MAP4K4 (HGK) (O95819 whole entry, species assumed): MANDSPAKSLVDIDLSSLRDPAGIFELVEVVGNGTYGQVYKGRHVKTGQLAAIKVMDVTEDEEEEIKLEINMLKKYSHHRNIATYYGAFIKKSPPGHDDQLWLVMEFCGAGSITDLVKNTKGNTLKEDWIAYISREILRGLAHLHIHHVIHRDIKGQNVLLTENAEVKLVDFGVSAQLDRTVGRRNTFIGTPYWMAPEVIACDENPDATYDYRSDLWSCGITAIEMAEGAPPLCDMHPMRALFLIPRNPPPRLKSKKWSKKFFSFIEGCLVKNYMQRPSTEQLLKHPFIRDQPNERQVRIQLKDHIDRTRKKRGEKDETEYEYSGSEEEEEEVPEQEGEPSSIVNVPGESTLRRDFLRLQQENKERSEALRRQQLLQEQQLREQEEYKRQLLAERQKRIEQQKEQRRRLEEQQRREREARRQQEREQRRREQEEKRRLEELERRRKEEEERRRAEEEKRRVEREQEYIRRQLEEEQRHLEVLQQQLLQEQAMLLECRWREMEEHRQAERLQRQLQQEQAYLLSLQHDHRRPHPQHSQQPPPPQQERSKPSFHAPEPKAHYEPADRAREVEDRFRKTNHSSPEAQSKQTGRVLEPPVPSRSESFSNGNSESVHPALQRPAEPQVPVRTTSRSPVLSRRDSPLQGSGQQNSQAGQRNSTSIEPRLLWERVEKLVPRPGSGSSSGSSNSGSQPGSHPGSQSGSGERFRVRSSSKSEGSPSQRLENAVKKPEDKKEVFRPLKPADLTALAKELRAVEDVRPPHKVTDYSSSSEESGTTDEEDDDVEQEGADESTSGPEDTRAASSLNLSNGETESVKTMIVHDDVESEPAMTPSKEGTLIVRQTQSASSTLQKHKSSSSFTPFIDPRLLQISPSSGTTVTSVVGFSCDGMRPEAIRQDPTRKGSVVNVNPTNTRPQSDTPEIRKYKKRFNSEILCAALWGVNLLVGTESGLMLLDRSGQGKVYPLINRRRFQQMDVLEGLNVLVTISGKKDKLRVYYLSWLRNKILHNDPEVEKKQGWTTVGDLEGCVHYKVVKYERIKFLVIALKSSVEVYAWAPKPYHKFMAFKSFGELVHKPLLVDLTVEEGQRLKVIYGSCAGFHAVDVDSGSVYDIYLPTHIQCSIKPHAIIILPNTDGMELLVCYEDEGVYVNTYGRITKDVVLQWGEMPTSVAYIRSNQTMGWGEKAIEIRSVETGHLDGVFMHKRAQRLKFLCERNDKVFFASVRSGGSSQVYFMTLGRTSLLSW
Procedure: as §1, §2, §3, §4, §5, §6, §7, §8, §9, §10, §11

MAPK14 (p38 alpha) = MAPK14 (p38 alpha) (Homo sapiens, UniProt Q16539)
Procedure: as §1, §2, §3, §4, §5, §6, §7, §8, §9, §10, §11

PDGFRB (PDGFR beta) = PDGFRB (PDGFR beta) (Homo sapiens, UniProt P09619)
Procedure: as §1, §2, §3, §4, §5, §6, §7, §8, §9, §10, §11

PIM1 = PIM1 (Homo sapiens, UniProt P11309)
Procedure: as §1, §2, §3, §4, §5, §6, §7, §8, §9, §10, §11

PLK1 = PLK1 (Homo sapiens, UniProt P53350)
Sequence of PLK1 (P53350 whole entry, species assumed): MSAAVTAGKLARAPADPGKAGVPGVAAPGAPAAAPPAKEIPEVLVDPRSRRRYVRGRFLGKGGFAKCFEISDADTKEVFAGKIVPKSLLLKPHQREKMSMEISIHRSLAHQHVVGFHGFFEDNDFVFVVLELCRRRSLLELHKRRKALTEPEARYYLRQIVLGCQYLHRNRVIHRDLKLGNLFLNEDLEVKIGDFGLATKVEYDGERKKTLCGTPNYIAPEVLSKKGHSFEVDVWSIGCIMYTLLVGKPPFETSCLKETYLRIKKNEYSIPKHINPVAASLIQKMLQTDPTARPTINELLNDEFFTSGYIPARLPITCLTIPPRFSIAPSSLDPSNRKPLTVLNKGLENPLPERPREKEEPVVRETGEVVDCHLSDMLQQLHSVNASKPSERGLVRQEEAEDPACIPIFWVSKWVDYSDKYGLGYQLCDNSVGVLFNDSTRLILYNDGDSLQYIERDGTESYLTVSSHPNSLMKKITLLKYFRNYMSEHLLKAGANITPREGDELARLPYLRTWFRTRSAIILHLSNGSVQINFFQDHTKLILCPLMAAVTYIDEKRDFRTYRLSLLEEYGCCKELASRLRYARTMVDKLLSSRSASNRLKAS
Procedure: as §1, §2, §3, §4, §5, §6, §7, §8, §9, §10, §11

ROCK1 = ROCK1 (Homo sapiens, UniProt Q13464)
Procedure: as §1, §2, §3, §4, §5, §6, §7, §8, §9, §10, §11

RPS6KB1 (p70S6K) = RPS6KB1 (p70S6K) (Homo sapiens, UniProt P23443)
Sequence of RPS6KB1 (p70S6K) (P23443 whole entry, species assumed): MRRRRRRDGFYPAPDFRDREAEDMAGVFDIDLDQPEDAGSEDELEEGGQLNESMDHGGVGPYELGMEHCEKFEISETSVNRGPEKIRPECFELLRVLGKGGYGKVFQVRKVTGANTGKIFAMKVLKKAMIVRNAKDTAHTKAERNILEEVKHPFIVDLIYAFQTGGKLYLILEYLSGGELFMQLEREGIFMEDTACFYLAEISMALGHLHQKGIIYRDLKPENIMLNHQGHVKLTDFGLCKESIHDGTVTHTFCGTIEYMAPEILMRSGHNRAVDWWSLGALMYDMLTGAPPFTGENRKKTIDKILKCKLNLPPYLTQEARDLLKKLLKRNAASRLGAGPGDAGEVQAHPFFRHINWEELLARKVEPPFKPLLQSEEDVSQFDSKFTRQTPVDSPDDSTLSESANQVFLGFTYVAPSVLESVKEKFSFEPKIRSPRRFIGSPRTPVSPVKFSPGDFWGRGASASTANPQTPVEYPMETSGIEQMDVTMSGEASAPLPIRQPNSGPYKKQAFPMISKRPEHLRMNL
Procedure: as §1, §2, §3, §4, §5, §6, §7, §8, §9, §10, §11

SRC = SRC (Homo sapiens, UniProt P12931)
Procedure: as §1, §2, §3, §4, §5, §6, §7, §8, §9, §10, §11

TEK (Tie2) = TEK (Tie2) (Homo sapiens, UniProt Q02763)
Sequence of TEK (Tie2) (Q02763 23-1124, species assumed): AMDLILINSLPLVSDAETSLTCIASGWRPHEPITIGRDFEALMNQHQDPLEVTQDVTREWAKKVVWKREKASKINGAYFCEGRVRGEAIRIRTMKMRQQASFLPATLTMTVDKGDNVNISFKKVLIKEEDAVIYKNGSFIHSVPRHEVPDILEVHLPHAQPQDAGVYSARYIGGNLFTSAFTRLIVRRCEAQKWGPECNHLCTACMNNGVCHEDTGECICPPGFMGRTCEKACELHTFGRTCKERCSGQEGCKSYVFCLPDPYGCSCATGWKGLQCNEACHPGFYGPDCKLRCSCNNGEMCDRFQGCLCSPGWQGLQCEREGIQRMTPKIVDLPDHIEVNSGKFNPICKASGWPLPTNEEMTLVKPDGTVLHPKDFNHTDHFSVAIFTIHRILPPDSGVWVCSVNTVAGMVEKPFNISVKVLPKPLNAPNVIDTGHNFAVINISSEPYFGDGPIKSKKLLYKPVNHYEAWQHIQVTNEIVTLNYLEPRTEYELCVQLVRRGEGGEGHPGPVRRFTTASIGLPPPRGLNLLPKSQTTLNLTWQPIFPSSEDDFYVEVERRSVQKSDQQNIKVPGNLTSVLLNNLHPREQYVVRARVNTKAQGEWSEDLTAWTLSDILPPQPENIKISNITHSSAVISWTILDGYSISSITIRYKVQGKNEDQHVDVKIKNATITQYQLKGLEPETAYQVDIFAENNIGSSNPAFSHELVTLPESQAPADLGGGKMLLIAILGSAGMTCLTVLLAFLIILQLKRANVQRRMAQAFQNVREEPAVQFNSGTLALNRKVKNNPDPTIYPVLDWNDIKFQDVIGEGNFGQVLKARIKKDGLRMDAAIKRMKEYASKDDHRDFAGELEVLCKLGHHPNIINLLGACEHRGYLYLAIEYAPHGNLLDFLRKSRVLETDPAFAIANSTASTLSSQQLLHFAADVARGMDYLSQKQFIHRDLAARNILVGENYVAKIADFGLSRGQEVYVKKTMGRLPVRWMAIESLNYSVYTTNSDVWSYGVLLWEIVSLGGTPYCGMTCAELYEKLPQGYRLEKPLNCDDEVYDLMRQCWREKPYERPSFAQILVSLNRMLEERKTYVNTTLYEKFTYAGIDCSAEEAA
Procedure: as §1, §2, §3, §4, §5, §6, §7, §8, §9, §10, §11

PRKCB1 (PKC beta I) = PRKCB1 (PKC beta I) (Homo sapiens, UniProt P05771)
Sequence of PRKCB1 (PKC beta I) (P05771 whole entry, species assumed): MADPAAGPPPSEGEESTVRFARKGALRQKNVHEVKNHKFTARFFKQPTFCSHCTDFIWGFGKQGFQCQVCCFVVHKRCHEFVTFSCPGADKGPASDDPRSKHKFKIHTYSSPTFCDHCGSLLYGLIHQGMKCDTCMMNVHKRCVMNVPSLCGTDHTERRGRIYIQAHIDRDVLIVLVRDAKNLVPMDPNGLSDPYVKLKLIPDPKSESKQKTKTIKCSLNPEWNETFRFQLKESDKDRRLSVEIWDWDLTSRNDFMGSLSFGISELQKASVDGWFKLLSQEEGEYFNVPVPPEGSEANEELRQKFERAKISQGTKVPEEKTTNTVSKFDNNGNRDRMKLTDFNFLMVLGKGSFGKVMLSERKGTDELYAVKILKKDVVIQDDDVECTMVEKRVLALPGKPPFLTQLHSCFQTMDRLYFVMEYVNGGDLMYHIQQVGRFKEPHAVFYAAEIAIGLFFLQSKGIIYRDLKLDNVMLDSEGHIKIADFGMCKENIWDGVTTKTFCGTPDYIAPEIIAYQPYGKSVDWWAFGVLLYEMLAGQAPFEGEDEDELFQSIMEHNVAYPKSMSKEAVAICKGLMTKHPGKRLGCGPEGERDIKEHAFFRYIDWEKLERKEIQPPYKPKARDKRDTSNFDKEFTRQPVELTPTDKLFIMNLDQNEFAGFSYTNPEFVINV
Procedure: as §1, §2, §3, §4, §5, §6, §7, §8
The Development Reagent was diluted in Development Buffer. For 5 mL 10X Novel PKC Lipid Mix, 10X Novel PKC Lipid Mix being composed of 2 mg/ml Phosphatidyl Serine, 0.2 mg/ml DAG in 20 mM HEPES, pH 7.4, 0.3% CHAPS, 10 mg of Phosphatidyl Serine (Avanti Polar Lipids Part# 8400032C or 840039C) and 1 mg DAG (Avanti Polar Lipids Part# 800811C) were added to a glass tube.
The chloroform was removed from the lipid mixture by evaporating to a clear, thin film under a stream of nitrogen. Continuous rotation of the tube, at an angle to ensure maximum surface area of the lipid solution, has promoted the thinnest film. 5mL resuspension buffer, 20 mM HEPES, 0.3% CHAPS, pH 7.4, were added to the dried lipid mix, which was then gently heated to 50-60°C for 1-2 minutes and vortexed in short intervals until the lipids are dissolved to a clear or slightly hazy solution. The lipids were typically in solution after 2-3 heat-vortex cycles. The solution was cooled to room temperature, aliquoted into single use volumes and stored at -20 °C.
as §9
The solution was plate-shaked for 30 seconds, then incubated 60 minutes at room temperature for kinase reaction. […]

inhibition at 10 µM (ABL1) | inhibition at 10 µM (AMPK A1/B1/G1) | inhibition at 10 µM (CSNK2A1 (CK2 alpha 1)) | inhibition at 10 µM (EGFR (ErbB1)) | inhibition at 10 µM (FGFR1) | inhibition at 10 µM (KIT) | inhibition at 10 µM (MAP2K1 (MEK1)) | inhibition at 10 µM (MAP4K4 (HGK)) | inhibition at 10 µM (MAPK14 (p38 alpha)) | inhibition at 10 µM (PDGFRB (PDGFR beta)) | inhibition at 10 µM (PIM1) | inhibition at 10 µM (PLK1) | inhibition at 10 µM (ROCK1) | inhibition at 10 µM (RPS6KB1 (p70S6K)) | inhibition at 10 µM (SRC) | inhibition at 10 µM (TEK (Tie2)) | inhibition at 10 µM (PRKCB1 (PKC beta I)) | SMILES
10% | 4% | 5% | 14% | 9% | 6% | -1% | 13% | 5% | 1% | 8% | -5% | -3% | 14% | 17% | 0% | 0% | CN1CCN(CCNC(=O)OC[C@H]2O[C@@H](n3cnc4c(N)ncnc43)[C@H](O)[C@@H]2O)CC1 [Compound C46]
-2% | 14% | -5% | 31% | 13% | -7% | -1% | 1% | 18% | 4% | 7% | -5% | -1% | 16% | 38% | 4% | 1% | Nc1ncnc2c1ncn2[C@@H]1O[C@H](COC(=O)N2CCC(Cc3ccc(F)cc3)C2)[C@@H](O)[C@H]1O (some centres unmarked) [Compound C66]
-7% | 8% | 4% | -1% | 1% | 12% | 3% | -5% | 4% | 4% | 5% | 0% | -3% | 6% | 8% | 1% | -5% | N#CCCN1CCN(C(=O)OC[C@H]2O[C@@H](n3cnc4c(N)ncnc43)[C@H](O)[C@@H]2O)CC1 [Compound C70]
-2% | 4% | 7% | 20% | 4% | 10% | -3% | -8% | 0% | 8% | 0% | -3% | -7% | -1% | 17% | 0% | -1% | CN(C)CCNC(=O)OC[C@H]1O[C@@H](n2cnc3c(N)ncnc32)[C@H](O)[C@@H]1O [Compound C85]
-3% | 2% | 8% | 28% | 16% | -16% | -2% | 9% | -2% | 9% | -4% | -10% | -15% | 0% | 8% | -2% | -6% | Nc1ncnc2c1ncn2[C@@H]1O[C@H](COC(=O)N2CCN(C(=O)N3CCOCC3)CC2)[C@@H](O)[C@H]1O [Compound C89]
15% | 9% | 2% | 5% | 9% | 20% | 4% | 68% | 20% | 10% | 6% | -7% | -8% | 0% | 58% | 58% | -1% | CS(=O)(=O)N1CC2(CCN(C(=O)OC[C@H]3O[C@@H](n4cnc5c(N)ncnc54)[C@H](O)[C@@H]3O)CC2)c2ccccc21 [Compound C98]
1% | 4% | 5% | 8% | 0% | -9% | 5% | -6% | -4% | 4% | -1% | -11% | -6% | 13% | 8% | 2% | 1% | Nc1ncnc2c1ncn2[C@@H]1O[C@H](COC(=O)N2CCS(=O)(=O)CC2)[C@@H](O)[C@H]1O [Compound C100]
